Results published in patent US20130011411A1, “METHODS AND COMPOSITIONS FOR THE DIAGNOSIS, PROGNOSIS, AND TREATMENT OF CANCER” (priority 2010, published 2013).

Tested on: breast cancer cell lines
Experiment: DACH1 mRNA expression after methylation inhibitor treatment
Type: cell-based
Details: different breast cancer cell lines; data not shown
Excerpt: DNA methylation is a common mechanism leading to tumor suppressor inactivation.

Structure (SMILES): Nc1ncn([C@H]2C[C@H](O)[C@@H](CO)O2)c(=O)n1 [5-aza-2′-deoxycytidine]
- DACH1 mRNA expression: induced DACH1 mRNA expression
